Active and inactive are the calls of the source. The calls are words filed in the database; no cut-off is given here.
What was measured:
Coagulation factor XII = target: T1, Coagulation factor XII (Homo sapiens, UniProt P00748); experiment: Inhibition of human beta factor 12a using fluorogenic substrate Boc-Gln-Gly-Arg-AMC preincubated for 10 mins followed by addition of substrate measured every min for 30 mins
T1 sequence (P00748 whole entry): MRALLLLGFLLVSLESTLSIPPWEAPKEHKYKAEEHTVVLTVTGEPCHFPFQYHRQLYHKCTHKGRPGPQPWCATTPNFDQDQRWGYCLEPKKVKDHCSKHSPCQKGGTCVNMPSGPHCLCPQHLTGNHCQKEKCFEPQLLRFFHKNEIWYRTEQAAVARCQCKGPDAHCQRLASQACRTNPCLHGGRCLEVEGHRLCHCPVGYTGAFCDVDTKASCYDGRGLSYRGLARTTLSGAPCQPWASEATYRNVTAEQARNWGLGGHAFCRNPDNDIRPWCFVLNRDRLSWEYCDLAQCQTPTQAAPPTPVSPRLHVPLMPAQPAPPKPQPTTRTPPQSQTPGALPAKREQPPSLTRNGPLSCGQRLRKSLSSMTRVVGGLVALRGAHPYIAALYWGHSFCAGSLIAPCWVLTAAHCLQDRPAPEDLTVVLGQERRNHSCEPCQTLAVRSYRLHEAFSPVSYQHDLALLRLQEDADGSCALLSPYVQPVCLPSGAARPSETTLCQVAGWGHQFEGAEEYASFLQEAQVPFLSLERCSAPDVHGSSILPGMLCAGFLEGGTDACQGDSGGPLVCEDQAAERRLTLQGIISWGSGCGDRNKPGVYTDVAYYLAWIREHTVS

[1] = Half life in human citrated plasma at 10 uM by mass spectrophotometric analysis; format: ADME, cell-free
[2] = target: Coagulation factor XI (Homo sapiens) (UniProt P03951); experiment: Inhibition of human factor 11a at 40 uM using fluorogenic substrate Boc-Phe-Ser-Arg-AMC
[3] = target: Plasminogen (Homo sapiens) (UniProt P00747); experiment: Inhibition of human plasmin at 40 uM using fluorogenic substrate H-D-Val-Leu-Lys-AMC
[4] = target: Urokinase-type plasminogen activator (Homo sapiens) (UniProt P00749); experiment: Inhibition of human uPa at 40 uM using fluorogenic substrate Z-Gly-Gly-Arg-AMC
[5] = target: Tissue-type plasminogen activator (Homo sapiens) (UniProt P00750); experiment: Inhibition of human tPa at 40 uM using fluorogenic substrate Z-Gly-Gly-Arg-AMC
[6] = target: Prothrombin (Homo sapiens) (UniProt P00734); experiment: Inhibition of human thrombin at 40 uM using fluorogenic substrate Z-Gly-Gly-Arg-AMC
[7] = target: Coagulation factor X (Homo sapiens) (UniProt P00742); experiment: Inhibition of human factor 10a at 40 uM using fluorogenic substrate D-Phe-Pro-Arg-ANSNH-C4H9
[8] = target: T2, Coagulation factor VII (Homo sapiens) (UniProt P08709); experiment: Inhibition of human factor 7a at 40 uM using fluorogenic substrate D-Phe-Pro-Arg-ANSNH-C4H9
T2 sequence (whole entry): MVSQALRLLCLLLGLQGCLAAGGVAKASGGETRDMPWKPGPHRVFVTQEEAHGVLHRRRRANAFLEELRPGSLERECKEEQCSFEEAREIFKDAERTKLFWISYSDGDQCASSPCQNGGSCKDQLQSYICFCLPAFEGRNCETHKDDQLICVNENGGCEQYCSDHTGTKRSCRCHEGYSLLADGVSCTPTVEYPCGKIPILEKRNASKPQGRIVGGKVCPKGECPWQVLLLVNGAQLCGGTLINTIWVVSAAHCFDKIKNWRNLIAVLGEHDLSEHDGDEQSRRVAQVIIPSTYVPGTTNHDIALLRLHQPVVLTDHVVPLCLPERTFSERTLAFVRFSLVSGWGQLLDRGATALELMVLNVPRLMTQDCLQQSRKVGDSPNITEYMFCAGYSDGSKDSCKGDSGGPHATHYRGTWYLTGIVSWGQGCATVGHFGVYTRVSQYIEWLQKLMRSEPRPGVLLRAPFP

Homo sapiens [9] = organism: Homo sapiens; experiment: Inhibition of human trypsin at 40 uM using fluorogenic substrate Z-Gly-Gly-Arg-AMC
Plasma kallikrein [10] = target: T3, Plasma kallikrein (Homo sapiens, UniProt P03952); experiment: Inhibition of human plasma kallikrein at 40 uM using fluorogenic substrate Z-Phe-Arg-AMC
Homo sapiens [11] = organism: Homo sapiens; experiment: Selectivity for human beta-factor 12a over human trypsin
Homo sapiens [12] = organism: Homo sapiens; experiment: Selectivity for human beta-factor 12a over human factor 11a
Homo sapiens [13] = organism: Homo sapiens; experiment: Selectivity for human beta-factor 12a over human plasmin
Homo sapiens [14] = organism: Homo sapiens; experiment: Selectivity for human beta-factor 12a over human uPa
Homo sapiens [15] = organism: Homo sapiens; experiment: Selectivity for human beta-factor 12a over human tPa
Homo sapiens [16] = organism: Homo sapiens; experiment: Selectivity for human beta-factor 12a over human thrombin
Homo sapiens [17] = organism: Homo sapiens; experiment: Selectivity for human beta factor 12a over human plasma kallikrein
Homo sapiens [18] = organism: Homo sapiens; experiment: Selectivity for human beta-factor 12a over human factor 10a
Homo sapiens [19] = organism: Homo sapiens; experiment: Selectivity for human beta-factor 12a over human factor 7a
Plasma [20] = experiment: Anticoagulant activity in human plasma assessed as concentration required to double activated partial thromboplastin time by coagulation analyser; format: functional
[21] = Inhibition of human trypsin using fluorogenic substrate Z-Gly-Gly-Arg-AMC
Plasma kallikrein [22] = target: T3, Plasma kallikrein; experiment: Inhibition of human plasma kallikrein using fluorogenic substrate Z-Phe-Arg-AMC
Plasma [23] = experiment: Anticoagulant activity in human plasma assessed as change in prothrombin time up to 40 uM by coagulation analyser; format: functional, cell-free

T3 sequence (P03952 20-390 limits assumed): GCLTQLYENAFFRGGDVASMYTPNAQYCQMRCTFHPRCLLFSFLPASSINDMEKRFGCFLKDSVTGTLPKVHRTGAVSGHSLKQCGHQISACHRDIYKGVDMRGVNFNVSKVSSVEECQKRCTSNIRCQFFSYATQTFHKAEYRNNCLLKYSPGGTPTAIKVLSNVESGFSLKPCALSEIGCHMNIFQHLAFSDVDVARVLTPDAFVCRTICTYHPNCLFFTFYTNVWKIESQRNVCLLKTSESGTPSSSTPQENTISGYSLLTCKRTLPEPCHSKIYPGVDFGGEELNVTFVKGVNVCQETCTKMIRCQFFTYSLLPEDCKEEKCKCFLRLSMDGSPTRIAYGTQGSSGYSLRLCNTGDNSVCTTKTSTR
T3 sequence (P03952 391-638 limits assumed): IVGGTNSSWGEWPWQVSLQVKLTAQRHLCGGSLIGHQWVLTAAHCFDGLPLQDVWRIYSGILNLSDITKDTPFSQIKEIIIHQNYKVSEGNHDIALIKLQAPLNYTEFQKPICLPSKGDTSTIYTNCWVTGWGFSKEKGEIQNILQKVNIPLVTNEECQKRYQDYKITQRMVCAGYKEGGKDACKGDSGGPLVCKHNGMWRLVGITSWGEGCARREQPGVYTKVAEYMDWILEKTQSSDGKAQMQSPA
Chain of Coagulation factor X (Homo sapiens) (P00742 41-179 limits assumed): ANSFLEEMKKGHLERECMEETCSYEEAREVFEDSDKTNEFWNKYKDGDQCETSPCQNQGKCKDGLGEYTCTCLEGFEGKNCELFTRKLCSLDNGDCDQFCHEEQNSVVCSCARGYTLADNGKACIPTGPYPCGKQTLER
Chain of Coagulation factor X (Homo sapiens) (P00742 235-488 limits assumed): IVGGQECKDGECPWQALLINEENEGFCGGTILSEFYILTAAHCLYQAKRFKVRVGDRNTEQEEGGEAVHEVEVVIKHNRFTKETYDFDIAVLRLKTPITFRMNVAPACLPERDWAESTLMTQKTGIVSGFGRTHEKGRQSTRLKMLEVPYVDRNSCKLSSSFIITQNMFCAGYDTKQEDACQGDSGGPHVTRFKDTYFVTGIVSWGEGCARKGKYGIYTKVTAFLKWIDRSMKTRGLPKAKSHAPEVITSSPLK
Chain of Coagulation factor XI (Homo sapiens) (P03951 19-387 limits assumed): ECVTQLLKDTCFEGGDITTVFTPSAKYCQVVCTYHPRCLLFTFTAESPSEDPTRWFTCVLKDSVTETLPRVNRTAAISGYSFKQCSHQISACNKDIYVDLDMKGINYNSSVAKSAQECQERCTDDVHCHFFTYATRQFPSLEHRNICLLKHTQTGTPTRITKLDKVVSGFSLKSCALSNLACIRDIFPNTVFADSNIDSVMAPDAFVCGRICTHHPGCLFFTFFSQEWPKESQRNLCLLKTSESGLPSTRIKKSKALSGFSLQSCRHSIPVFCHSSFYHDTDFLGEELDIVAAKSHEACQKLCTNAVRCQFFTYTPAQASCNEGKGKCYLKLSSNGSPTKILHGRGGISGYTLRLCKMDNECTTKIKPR
Chain of Coagulation factor XI (Homo sapiens) (P03951 388-625 limits assumed): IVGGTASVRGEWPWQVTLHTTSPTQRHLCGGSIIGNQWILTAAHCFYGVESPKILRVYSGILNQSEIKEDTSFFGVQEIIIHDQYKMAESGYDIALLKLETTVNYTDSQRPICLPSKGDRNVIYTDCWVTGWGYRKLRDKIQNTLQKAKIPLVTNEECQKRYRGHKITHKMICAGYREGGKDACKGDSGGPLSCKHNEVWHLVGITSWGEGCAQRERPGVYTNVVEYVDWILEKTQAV
Chain of Tissue-type plasminogen activator (Homo sapiens) (P00750 36-562 limits assumed): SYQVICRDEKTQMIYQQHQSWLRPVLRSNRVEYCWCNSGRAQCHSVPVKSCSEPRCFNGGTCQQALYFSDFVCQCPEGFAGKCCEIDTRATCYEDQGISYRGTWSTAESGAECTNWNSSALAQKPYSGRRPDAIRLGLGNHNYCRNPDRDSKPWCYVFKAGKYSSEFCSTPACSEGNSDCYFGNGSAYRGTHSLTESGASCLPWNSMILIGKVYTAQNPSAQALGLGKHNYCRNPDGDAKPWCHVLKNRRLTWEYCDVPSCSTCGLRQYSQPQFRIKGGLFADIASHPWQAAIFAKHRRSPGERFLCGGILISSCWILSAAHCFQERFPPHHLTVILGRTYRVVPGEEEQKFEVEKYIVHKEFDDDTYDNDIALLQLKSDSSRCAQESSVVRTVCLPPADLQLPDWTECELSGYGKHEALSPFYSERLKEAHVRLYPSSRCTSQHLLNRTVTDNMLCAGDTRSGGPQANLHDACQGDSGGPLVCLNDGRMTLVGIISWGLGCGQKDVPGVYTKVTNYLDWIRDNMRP
Chain of Plasminogen (Homo sapiens) (P00747 97-580 limits assumed): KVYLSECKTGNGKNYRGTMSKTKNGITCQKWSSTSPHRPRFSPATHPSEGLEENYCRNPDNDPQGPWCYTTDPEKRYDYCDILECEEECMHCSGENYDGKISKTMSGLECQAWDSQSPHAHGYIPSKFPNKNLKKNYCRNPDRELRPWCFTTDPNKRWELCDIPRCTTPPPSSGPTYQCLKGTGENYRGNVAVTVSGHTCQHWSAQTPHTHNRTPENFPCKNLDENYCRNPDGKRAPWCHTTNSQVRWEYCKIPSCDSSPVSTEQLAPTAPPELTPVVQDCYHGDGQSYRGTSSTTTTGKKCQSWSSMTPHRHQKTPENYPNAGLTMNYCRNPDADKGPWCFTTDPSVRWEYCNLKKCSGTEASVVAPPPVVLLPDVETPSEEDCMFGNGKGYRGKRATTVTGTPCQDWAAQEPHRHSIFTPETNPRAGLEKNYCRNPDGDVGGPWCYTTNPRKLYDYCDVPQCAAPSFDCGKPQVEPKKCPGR
Chain of Plasminogen (Homo sapiens) (P00747 581-810 limits assumed): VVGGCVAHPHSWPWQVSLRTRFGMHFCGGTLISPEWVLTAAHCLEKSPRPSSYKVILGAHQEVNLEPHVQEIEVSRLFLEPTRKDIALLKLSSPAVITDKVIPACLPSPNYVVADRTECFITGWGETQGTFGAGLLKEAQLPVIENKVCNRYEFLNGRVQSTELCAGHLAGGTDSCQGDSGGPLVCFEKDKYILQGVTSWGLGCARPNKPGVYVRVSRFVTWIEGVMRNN

## CC(C)C[C@@H]1NC(=O)[C@H](CCC(N)=O)NC(=O)[C@H](CCCNC(=N)N)NC(=O)[C@@H]2CSCCC(=O)N3CN(CN(C3)C(=O)CCSC[C@H](NC(=O)[C@@H](N)CCNC(=N)N)C(=O)N[C@@H](Cc3ccc(F)cc3)C(=O)N[C@@H](CCCNC(=N)N)C(=O)N[C@@H](CC(C)C)C(=O)N3CCC[C@H]3C(=O)N2)C(=O)CCSC[C@@H](C(=O)N[C@@H](CCCNC(=N)N)C(=O)O)NC(=O)[C@H](CCCNC(=N)N)NC1=O
Coagulation factor XII
  Ki: 1.63 nM
[1]
  half-life at 10 µM: 16 h
[2]
  inhibition: < 20%
[3]
  inhibition: < 20%
[4]
  inhibition: < 20%
[5]
  inhibition: < 20%
[6]
  inhibition: < 20%
[7]
  inhibition: < 20%
[8]
  inhibition: < 20%
Homo sapiens [9]
  inhibition: > 50%
Plasma kallikrein [10]
  inhibition: > 50%
Homo sapiens [11]
  Selectivity ratio: 800
Homo sapiens [12]
  Selectivity ratio: 27000
Homo sapiens [13]
  Selectivity ratio: 27000
Homo sapiens [14]
  Selectivity ratio: 27000
Homo sapiens [15]
  Selectivity ratio: 27000
Homo sapiens [16]
  Selectivity ratio: 27000
Homo sapiens [17]
  Selectivity ratio: 27000
Homo sapiens [18]
  Selectivity ratio: 27000
Homo sapiens [19]
  Selectivity ratio: 27000
Plasma [20]
  2aPTT: 2 µM
  Activity: Dose-dependent effect
[21]
  Ki: 1300 nM
Plasma kallikrein [22]
  Ki: 45100 nM
Plasma [23]
  Activity: inactive

From ChEMBL document CHEMBL3992518, “Peptide Macrocycle Inhibitor of Coagulation Factor XII with Subnanomolar Affinity and High Target Selectivity” (J Med Chem, 2017)
